Reference: US20240325386A1, “THERAPEUTIC AGENT FOR COVID-19” (FUJIFILM Toyama Chemical Co., Ltd., priority 2021, published 2024)
Read-outs that look alike come from different tables or passages of the source.

Key:
SARS-CoV-2 [1] = type: in vivo
SARS-CoV-2 [2] = settings: Japanese phase III clinical study, as reported in Non-patent Literature 4 (news release); cited from earlier work
[3] = mITT, N = 107, improvement in body temperature, SpO2, chest imaging and SARS-CoV-2 negative conversion

## NC(=O)c1nc(F)cnc1O [Compound A, 6-fluoro-3-hydroxy-2-pyrazinecarboxamide]
SARS-CoV-2 [1]; mITT, Compound A group 107 patients vs control group 49 patients
  median time to improvement shorter than in the control group: approximately 3 days
SARS-CoV-2 [1]; mITT, Compound A group N = 107, 1,800 mg BID Day 1 + 800 mg BID up to 13 days, oral, plus standard of care
  Patients with improvement: 81
SARS-CoV-2 [1]; [3]
  Median time to improvement in 25% of patients: 7.8 days
  Median time to improvement in 50% of patients: 11.9 days
  Median time to improvement in 75% of patients: 15.6 days
SARS-CoV-2 [1]; subgroup of patients testing negative for both IgG antibody and IgA antibody
  median time to improvement shorter than in the control group: approximately 5 days
SARS-CoV-2 [2]
  time to improvement of body temperature, SpO2, chest image findings and SARS-CoV-2 negative conversion (primary endpoint) shorter than in the control group: approximately 3 days
